Results taken from patent publication US11376324B2, “Sting activating nanovaccine for immunotherapy” (The Board of Regents of the University of Texas System, priority 2016, dated 2022).

Assays:
IRF7 and CXCL10 = test: q-RT-PCR of interferon-stimulated genes at injection site; format: in vivo, mice; conditions: local tissue after s.c. injection
Source text: Samples were run in triplicate.

[1] = Histology of major organs (H&E); format: in vivo, C57BL/6 mice; conditions: repeated injections, 10 μg OVA plus 150 μg
Description: FIG. 14. Histology analyses of major organs for safety assessment of PC7A nanovaccine. Representative H&E sections of the main organs from C57BL/6 mice after repeated injections of 10 μg OVA plus 150 μg PC7A NP or the same dose of Poly(I:C). Mice were sacrificed 24 h after the second injection (n=5 for each group).

B16-OVA tumor = test: B16-OVA melanoma tumor therapy; format: in vivo, C57BL/6 mice; conditions: peptide 0.5 μg, s.c. day 5 and booster 5 days later
Description: Six to eight week old mice (n=10 for each group) were injected subcutaneously with B16-OVA or B16F10 melanoma cells (1.5×10^5), or TC-1 cells (1.5×10^5), MC38 cells (5×10^5) into the right flank of mice. […] Or at day 3, 6, 9 and 12, some groups were i.p. injected with 200 μg checkpoint inhibitors (anti-mPD-1, BioXcell, BE0146) for comparison or synergy evaluation. The tumor growth was subsequently measured twice a week using a digital caliper and calculated as 0.5×length×width^2 by blinded investigators. Mice were killed when tumor […] reached 1500 mm^3, the end point of tumor detection is 2-fold of the longest survival time (LST) of control group, so around 40 days for melanoma tumor model, and around 60 days for TC-1 and MC38 tumor models.

With Poly(I:C) the “IRF7 and CXCL10 expression, 2 to 8 h” value (IRF7 and CXCL10) was “higher response in IRF7 and CXCL10 expressions in the early time points from 2 to 8 h than PC7A NP” and the “histology of major organs (liver, spleen, kidney, heart)” value [1] was “ballooned hepatocytes indicative of steatohepatitis”.

In the case of SIINFEKLTEWTSSNVMEERKIKV [OVA257-280], the “tumor growth inhibition / survival benefit (in words)” value (B16-OVA tumor) is reported as “did not offer any significant tumor growth inhibition or survival benefit over the PBS control”.
